# Experimental data from patent US11078496B2, “System for F-box hormone receptor regulated protein expression in mammalian cells” (ICAHN SCHOOL OF MEDICINE AT MOUNT SINAI, priority 2016, dated 2021).
# Tested on: dnMAML1-NLS-GFP-OsJAZ^33 (dnM1-GFP-J)
# Experiment: Coronatine-dependent degradation of dnM1-GFP-J in hESCs (fluorescence microscopy)
# Type: cell-based, human
# Settings: hESCs harboring pRAIDRS NICD-A and pJAZ dnM1-GFP-J, 50 μM coronatine, 1 day
# Description: FIGS. 14A-14C illustrate a dual switch for dissection of NOTCH1 function in hESCs. H9 hESCs were infected with pRAIDRS harboring an shRNA targeting the full-length NOTCH1 receptor and an NICD-AID^47 CDS (“NICD-A”). As a control, cells were infected with pRAIDRS NLS-GFP-AID^47 (“GFP-A”). Cells were maintained with 250 μM auxin to prevent NICD-A accumulation. Following selection and isolation of colonies with ESC morphology, cells were infected with pJAZ dnMAML1-NLS-GFP-OsJAZ^33 (“dnM1-GFP-J”) or pJAZ NLS-GFP-OsJAZ^33 (“GFP-J”) as control and post-selection colonies were expanded. FIG. 14A is a western blot analysis of pRAIDRS GFP-A and NICD-A hESCs maintained in the presence of 250 μM auxin (“IAA”), washed and incubated for 4 h in the presence (+) or absence (−) of auxin. […] Dashed lines mark colony borders. […] Dashed lines indicate instances where coronatine-mediated dnM1-GFP-J degradation restored NICD-A-dependent activity by at least twofold. […] See also FIGS. 13A-13E and 15.
# In mice, NOTCH was also implicated in trophectoderm formation (Rayon et al., “Notch and Hippo Converge on Cdx2 to Specify the Trophectoderm Lineage in the Mouse Blastocyst,” Dev. Cell 30:410-422 (2014), which is hereby incorporated by reference in its entirety). […]
smiles,measurement,value
"CC[C@H]1C=C(C(=O)N[C@@]2(C(=O)O)C[C@@H]2CC)[C@H]2CCC(=O)[C@H]2C1 [coronatine, Coronatine]",degradation of dnM1-GFP-J,effectively induced degradation
